From patent publication US20050130237A1, “High throughput screening method for compounds with non-, pro-, or anti-apoptotic or proliferative or necrotic activity” (priority 2002, published 2005)
Peptide text beside a SMILES is read from it. * marks the point of attachment. Cbz = O=C(OCc1ccccc1)*; CH2F = FC*

Assays:
Type in all cases: cell-based, human
[1] = test system: JurkatGFP cells; experiment: Anti-apoptotic activity after induction of apoptosis by serially diluted soluble FasL, fluorescence microplate reader; conditions: 24 h incubation, compared with control peptide zFA
Source text: The activity of an anti-apoptotic compound, e.g. the pan caspase inhibitor zVADfmk, has been tested on JurkatGFP cells after induction of apoptosis by serially diluted soluble FasL and measured by a fluorescence microplate reader. […] The bars indicate standard deviations, which have been determined by measuring 6 single values for each datapoint.

[2] = test system: HeLa cells; experiment: Primary screening: overall EGFP relative fluorescence activity per well, fluorescence microplate reader, 96-well plates; conditions: values under 0.8 = pro-apoptotic and/or necrotic
Source text: A representative primary screening with standard experimental set-up, where 16 commercially available anti-cancer drugs have been tested on five different EGFP expressing cell lines (HeLa, KB, A20, Ramos and Jurkat) in 96-well microtiter plates is shown in FIG. 2. Differential susceptibility regarding induction of apoptosis and/or necrosis after treatement with 5-Fluorouracil (5-FU), Gemzar, Methotrexate, Eloxantin, Detimedac, Endoxan, Paraplatin, Navelbine, Velbe, Taxotere, Taxol, Adriblastin, Bleomycin, Campto, Etopophos and Farmorubicin is shown. Measurements after 24 h and 48 h were performed with a fluorescence microplate reader, which measures the overall fluorescence activity in a single well. Used compound concentrations are indicated by a fraction of the original concentration.
The setting of a cut-off value, corresponding to 0.8 in this case, allows the clear discrimination between two main groups of different activities. […] According to these intermediate values between 0 and 0.8 measured by a fluorescence microplate reader, it can hardly be discriminated between the subpopulations of apoptotic and necrotic cells within the same well. […]
Immediately after the addition of the compounds to the cells the zero fluorescence value (t=0 h) was determined by using a fluorescence microplate reader in order to be able to normalize the fluorescence activities. […]

[3] = test system: HeLa cells; experiment: Secondary screening: FACS analysis discriminating apoptotic and necrotic activity of anti-cancer drugs; conditions: for necrotic activity (FACS histograms): necrosis evident after exposure longer than 24 h, followed up to 48 h, Navelbine, Velbe, Campto 1/1000 diluted, Adriblastin 1/2000 diluted
Source text: For this purpose HeLa cells have been treated with typical anti-cancer drugs of different mode of actions. Navelbine and Velbe, two typical representatives of microtubules interfering drugs and Adriblastin and Campto, topo-isomerase inhibitors, which interfere with DNA synthesis.
Arrows indicate regions with either necrotic cells (left arrow) or apoptotic cells (middle arrow) or proliferating/living cells (right arrow). […] This fact became evident after exposure of the cells for longer than 24 h.
HeLa cells have been treated with typical anti-cancer drugs of different mode of actions. Navelbine and Velbe, two typical representatives of microtubules interfering drugs and Adriblastin and Campto, topo-isomerase inhibitor, which interfere with DNA synthesis. Histograms of FACS analysis of cells treated either with Navelbine (1/1000 diluted), Velbe (1/1000 diluted), Adriblastin (1/2000 diluted) and Campto (1/1000 diluted) are shown in FIG. 4. Arrows indicate regions with either necrotic cells (left arrow), apoptotic cells (middle arrow) and proliferating cells (right arrow). […] This fact became evident after exposure of the cells for longer than 24 h.

| SMILES | necrotic activity (FACS histograms) [3] | further results |
| --- | --- | --- |
| COC(=O)C[C@H](NC(=O)[C@H](C)NC(=O)[C@@H](NC(=O)OCc1ccccc1)C(C)C)C(=O)CF [zVAD] (Cbz-Val-Ala-Asp(OMe)-CH2F) |  | anti-apoptotic effect on the apoptotic activity of FasL [1]: clear inhibitory anti-apoptotic effect |
| CCC1=C[C@@H]2CN(C1)Cc1c([nH]c3ccccc13)[C@@](C(=O)OC)(c1cc3c(cc1OC)N(C)[C@H]1[C@@](O)(C(=O)OC)[C@H](OC(C)=O)[C@]4(CC)C=CCN5CC[C@]31[C@@H]54)C2 [Navelbine] | strong tendency to induce necrosis | relative fluorescence activity (intermediate value, cut-off 0.8) ([2]; highest concentration 1/10 k of original concentration): 0.49 |
| CC[C@]1(O)C[C@@H]2CN(CCc3c([nH]c4ccccc34)[C@@](C(=O)OC)(c3cc4c(cc3OC)N(C)[C@H]3[C@@](O)(C(=O)OC)[C@H](OC(C)=O)[C@]5(CC)C=CCN6CC[C@]43[C@@H]65)C2)C1 [Velbe] | strong tendency to induce necrosis |  |
| CCc1c2c(nc3ccc(OC(=O)N4CCC(N5CCCCC5)CC4)cc13)-c1cc3c(c(=O)n1C2)COC(=O)[C@]3(O)CC [Campto] | do not show any tendency for necrotic activity |  |
| COc1cccc2c1C(=O)c1c(O)c3c(c(O)c1C2=O)C[C@@](O)(C(=O)CO)C[C@@H]3O[C@H]1C[C@H](N)[C@H](O)[C@H](C)O1 [Adriblastin] | do not show any tendency for necrotic activity | relative fluorescence activity (intermediate value, cut-off 0.8) ([2]; highest concentration 1/5 k of original concentration): 0.53; apoptotic activity (FACS histograms) ([3]; single-cell flow cytometry): only induce apoptosis |
